Structures can show the parent of a compound that is named as a salt. Where two headings read alike, the source gives them in different places.

The target in test [1] is T1, activated human C1 (Homo sapiens, UniProt P09871).
T1 sequence (P09871 438-688 limits assumed): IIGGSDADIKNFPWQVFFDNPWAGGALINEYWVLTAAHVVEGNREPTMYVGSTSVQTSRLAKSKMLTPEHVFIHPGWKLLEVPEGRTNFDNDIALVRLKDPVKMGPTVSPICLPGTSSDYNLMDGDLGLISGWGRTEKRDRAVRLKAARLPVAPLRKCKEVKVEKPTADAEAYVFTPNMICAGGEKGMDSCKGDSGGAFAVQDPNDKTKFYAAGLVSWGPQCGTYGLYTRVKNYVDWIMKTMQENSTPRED
T1 sequence (P09871 16-437 limits assumed): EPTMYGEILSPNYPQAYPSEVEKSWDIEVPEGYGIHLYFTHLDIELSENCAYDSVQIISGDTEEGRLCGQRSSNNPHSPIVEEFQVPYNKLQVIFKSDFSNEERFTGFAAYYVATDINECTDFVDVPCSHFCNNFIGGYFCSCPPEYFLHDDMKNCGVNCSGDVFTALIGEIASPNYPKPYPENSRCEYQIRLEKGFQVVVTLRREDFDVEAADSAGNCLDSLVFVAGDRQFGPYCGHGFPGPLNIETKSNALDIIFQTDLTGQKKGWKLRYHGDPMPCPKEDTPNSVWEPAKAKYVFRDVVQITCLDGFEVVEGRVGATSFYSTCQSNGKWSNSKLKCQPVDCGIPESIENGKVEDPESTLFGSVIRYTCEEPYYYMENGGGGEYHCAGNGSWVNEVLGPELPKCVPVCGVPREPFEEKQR
Description: Test, Code 026 (C1 inhibitor). Format: biochemical. Conditions: activity in wells of a serial two-fold dilution assay; higher well number indicates higher activity. The text has this:
(§1) This test measures the ability of activated human C1 to destroy fluid phase human C2 in the presence of C4 and appropriate dilutions of the test compound. An active inhibitor protects C2 from C1 and C4; (ii) Test, Code 035 (C3-C9 inhibitor). This test determines the ability of the late components of human complement (C3-C9) to lyse EAC 142 in the presence of appropriate dilutions of the test compound. An active inhibitor protects EAC 142 from lysis by human C3-C9; (iii) Test, Code 036 (C-Shunt inhibitor). In this test human erythrocytes rendered fragile are lysed in autologous serum via the shunt pathway activated by cobra venom factor in the presence of appropriate dilutions of the test compound. Inhibition of the shunt pathway results in failure of lysis; (iv) Forssman Vasculitis Test - Here, the well known complement dependent lesion, Forssman vasculitis, is produced in guinea pigs by intradermal injection of rabbit anti-Forssman antiserum. […]

Test [2] deals with late components of human complement (C3-C9). The test is described as follows: Test, Code 035 (C3-C9 inhibitor). It counts as biochemical. Particulars: activity in wells of a serial two-fold dilution assay; higher well number indicates higher activity.
Excerpt: as §1

Test [3] relates to shunt pathway activated by cobra venom factor. Description: Test, Code 036 (C-Shunt inhibitor). It counts as cell-based, human. Particulars: activity in wells of a serial two-fold dilution assay; higher well number indicates higher activity.
Excerpt: as §1

Test [4] deals with whole complement in serum. Description: Complement Level Reduction Test (in vivo, capillary tube assay of serum). Particulars: Cavia porcellus, ip, guinea pig, 200 mg/kg i.p., read-out: In Vivo Activity (Guinea Pig) % Inhibition Intraperitoneal.

As for `O=S(=O)(O)c1ccc(NS(=O)(=O)c2ccc3c(S(=O)(=O)Nc4ccc(S(=O)(=O)O)cc4)cc(S(=O)(=O)Nc4ccc(S(=O)(=O)O)cc4)cc3c2)cc1` [4,4',4"-[1,3,6-Naphthalenetris(sulfonylimino)]trisbenzenesulfonic acid trisodium salt], in test [1], the “Cl 0.26* Wells” value is on record as “+4 Wells”. Also, the “C-Late 0.35* Wells” value in test [2] is given as “N”. The “Shunt Inhibition 0.36* Wells” value in test [3] is “N”.
Consider `O=S(=O)(O)c1cc(NS(=O)(=O)c2ccc3c(S(=O)(=O)Nc4cc(S(=O)(=O)O)cc(S(=O)(=O)O)c4)cc(S(=O)(=O)Nc4cc(S(=O)(=O)O)cc(S(=O)(=O)O)c4)cc3c2)cc(S(=O)(=O)O)c1` [5,5',5"-[1,3,6-Naphthalenetris(sulfonylimino)]tris-1,3-benzenedisulfonic acid hexasodium salt], for which the “C-Late 0.35* Wells” value in test [2] was “N”. Besides, the inhibition – broadly, the relative decrease from the control value, in per cent – at 200 mg/kg was -85% in test [4] (0.5 h, 30 minutes); -86% in test [4] (1 h, 60 minutes); -86% in test [4] (2 h, 120 minutes).

Values taken from patent US4117003A, “Substituted aromatic naphthalene sulfonamides” (American Cyanamid Company, priority 1977, dated 1978).
